Source: ChEMBL document CHEMBL1146862, “Synthesis of trifluoromethylaryl diazirine and benzophenone derivatives of etomidate that are potent general anesthetics and effective photolabels for probing sites on ligand-gated ion channels” (J Med Chem, 2006)
Calls of active or inactive are those of the source. No cut-off for these calls is given here.

Columns and labels:
[1] = molecular target: T1, GABA-A receptor; anion channel (Homo sapiens) (UniProt P14867+P47870+P18507+P28472+P48169+Q99928+Q9UN88+P34903+O00591+O14764+Q8N1C3+P18505+P78334+P47869+P31644+Q16445); assay: Enhancement of [3H]flunitrazepam binding to cerebral cortex GABA-A receptor at >=0.3 uM; assay type: tissue-based
[2] = molecular target: T2, Serotonin 3 (5-HT3) receptor (Homo sapiens) (UniProt P46098+A5X5Y0+O95264+Q70Z44+Q8WXA8); assay: Inhibition of 5HT3 receptor at 2.2 uM; assay type: protein-complex assay
[3] = molecular target: T1, GABA-A receptor; anion channel (Homo sapiens); assay: Reduction of [3H]flunitrazepam binding to cerebral cortex GABA-A receptor at 100 uM relative to control; assay type: tissue-based; parameters: scale not given: the % may be the effect or the level left
[4] = tested on: Xenopus sp.; assay: Anesthetic activity in Xenopus tadpole measured as loss of righting reflex; assay type: functional, organism-based
[5] = molecular target: T2, Serotonin 3 (5-HT3) receptor (Homo sapiens); assay: Inhibition of 5HT3 receptor at 0.7 uM; assay type: protein-complex assay
[6] = molecular target: T3, GABA-A receptor; alpha-1/beta-2/gamma-2 (Homo sapiens) (UniProt P14867+P47870+P18507); assay: Enhancement of current in Xenopus laevis oocytes expressing human GABA-Alpha1 receptor plus beta-2-gamma-2L upto 1 uM; assay type: functional, cell-based; conditions: Oocyte
[7] = molecular target: T1, GABA-A receptor; anion channel (Homo sapiens); assay: Enhancement of [3H]flunitrazepam binding to cerebral cortex GABA-A receptor at 1 uM; assay type: tissue-based
[8] = molecular target: T2, Serotonin 3 (5-HT3) receptor (Homo sapiens); assay: Inhibition of 5HT3 receptor at 0.22 uM; assay type: protein-complex assay
[9] = molecular target: T1, GABA-A receptor; anion channel (Homo sapiens); assay: Enhancement of [3H]flunitrazepam binding to cerebral cortex GABA-A receptor at 0.1 uM; assay type: tissue-based
[10] = molecular target: T3, GABA-A receptor; alpha-1/beta-2/gamma-2 (Homo sapiens); assay: Enhancement of current in Xenopus laevis oocytes expressing human GABA-Alpha1 receptor plus beta-2-gamma-2L upto 10 uM; assay type: functional, cell-based; conditions: Oocyte
[11] = molecular target: T4, Acetylcholine receptor subunit delta (Torpedo californica) (UniProt P02718); assay: Photolabeling of Torpedo californica delta nAChR in presence of agonist relative to in absence of agonist; assay type: functional; conditions: Tetronarce californica
T4 sequence (whole entry): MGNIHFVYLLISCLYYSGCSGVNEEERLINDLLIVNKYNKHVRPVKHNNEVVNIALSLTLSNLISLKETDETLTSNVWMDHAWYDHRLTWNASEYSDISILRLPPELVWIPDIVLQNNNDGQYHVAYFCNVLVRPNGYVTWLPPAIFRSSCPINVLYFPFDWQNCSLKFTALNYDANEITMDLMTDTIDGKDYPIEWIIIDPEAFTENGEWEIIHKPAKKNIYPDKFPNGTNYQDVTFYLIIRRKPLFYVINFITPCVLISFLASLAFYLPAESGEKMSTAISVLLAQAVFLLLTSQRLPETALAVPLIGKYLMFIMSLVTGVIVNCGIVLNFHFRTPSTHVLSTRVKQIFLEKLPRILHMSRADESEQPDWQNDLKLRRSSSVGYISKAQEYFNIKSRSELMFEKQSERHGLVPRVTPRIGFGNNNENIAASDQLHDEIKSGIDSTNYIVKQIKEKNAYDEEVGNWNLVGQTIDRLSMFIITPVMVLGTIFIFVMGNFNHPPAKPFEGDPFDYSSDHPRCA

[12] = molecular target: T1, GABA-A receptor; anion channel (Homo sapiens); assay: Enhancement of [3H]flunitrazepam binding to cerebral cortex GABA-A receptor at >=1 uM; assay type: tissue-based
[13] = molecular target: T2, Serotonin 3 (5-HT3) receptor (Homo sapiens); assay: Inhibition of 5HT3 receptor at 2.3 uM; assay type: protein-complex assay
[14] = molecular target: Acetylcholine receptor subunit alpha (Torpedo californica) (UniProt P02710); assay: Photolabeling of Torpedo californica alpha nAChR in presence of agonist relative to in absence of agonist; assay type: functional; conditions: Tetronarce californica
Acetylcholine receptor subunit alpha (Torpedo californica), sequence (P02710 whole entry): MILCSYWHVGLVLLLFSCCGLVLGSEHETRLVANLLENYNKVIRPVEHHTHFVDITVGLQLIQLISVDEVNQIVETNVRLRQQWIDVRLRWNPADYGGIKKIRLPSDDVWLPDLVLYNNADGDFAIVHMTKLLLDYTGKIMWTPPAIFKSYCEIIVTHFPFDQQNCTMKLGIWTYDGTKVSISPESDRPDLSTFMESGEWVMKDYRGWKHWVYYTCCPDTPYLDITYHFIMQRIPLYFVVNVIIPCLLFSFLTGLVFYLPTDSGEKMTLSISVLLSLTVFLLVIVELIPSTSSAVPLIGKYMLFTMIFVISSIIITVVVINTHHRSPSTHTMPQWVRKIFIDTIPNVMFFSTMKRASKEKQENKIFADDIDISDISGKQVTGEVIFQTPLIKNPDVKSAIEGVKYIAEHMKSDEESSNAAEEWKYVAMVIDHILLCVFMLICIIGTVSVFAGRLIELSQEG

For `CC(c1ccccc1)n1cncc1C(=O)OCCC1(C)N=N1` (stereo not drawn) [AZIETOMIDATE], the Activity [1] was “Active”, the inhibition [2] was 8% and the Activity [3] was 115%. It also gave an EC50 [4] of 2200 nM.

`C[C@H](c1ccccc1)n1cncc1C(=O)OCc1ccc(C2(C(F)(F)F)N=N2)cc1` was tested, and the inhibition [5] was under 10%, the Activity [6] was “inactive” and the Activity [7] was “Active”. It also gave an EC50 [4] of 700 nM.

`C[C@H](c1ccccc1)n1cncc1C(=O)OCc1ccc(C(=O)c2ccccc2)cc1` was tested, and the inhibition [8] was under 10%, the Activity [9] was “Active” and the Activity [10] was “inactive”. The EC50 [4] was 220 nM.

`C[N+](C)(C)CCOC(N)=O` showed an Activity [11] of 60%.

In the case of `CCOC(=O)c1cncn1[C@H](C)c1ccccc1` [ETOMIDATE], the Activity [12] is reported as “Active”, the inhibition [13] is reported as 11% and the Activity [3] is reported as 78.5%. For the same compound, the EC50 [4] was 2300 nM.

Work on `CCCC(C(=O)OCCN(CC)CC)(c1ccccc1)c1ccccc1` yielded an Activity [14] of 70%.
